Here are results for seven molecules from patent publication US8084649B2, “Herbicides” (Syngenta Crop Protection, inc., priority 2007, dated 2011).

In series [1] the test system is Alopecurus myosuroides (ALOMY). In words: Pre-emergence herbicidal activity, glasshouse pot test. It is filed as in vivo. The conditions noted are these: Alopecurus myosuroides, 480 h, rate 500 g/ha, evaluated after 20 days, read-out: Pre-emergence activity, ALOMY (100=total damage to plant; 0=no damage to plant). A digest of the protocol: (§1)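 Pots, sterilised standard soil; sown, then sprayed at day 1 pre-emergence. Spray: technical AI in acetone + formulation (10.6% Emulsogen EL, 42.2% NMP, 42.2% DPGME, 0.2% X-77), diluted in water. Greenhouse, optimum conditions; scored at 20 d, 0–100 scale.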

Series [2] deals with Avena fatua (AVEFA). Described as above. The series is classed as in vivo. The conditions noted are these: Avena fatua, 480 h, rate 500 g/ha, evaluated after 20 days, read-out: Pre-emergence activity, AVEFA (100=total damage to plant; 0=no damage to plant). Summed up:
as §1

Series [3] deals with Digitaria sanguinalis (DIGSA). The series is described as above. It is filed as in vivo. The conditions noted are these: Digitaria sanguinalis, 480 h, rate 500 g/ha, evaluated after 20 days, read-out: Pre-emergence activity, DIGSA (100=total damage to plant; 0=no damage to plant). A digest of the protocol:
as §1

For series [4], the system named is Echinochloa crus-galli (ECHCG). Described as above. The series is classed as in vivo. The conditions noted are these: Echinochloa crus-galli, 480 h, rate 500 g/ha, evaluated after 20 days, read-out: Pre-emergence activity, ECHCG (100=total damage to plant; 0=no damage to plant). A digest of the protocol: as §1
Series [5] concerns Lolium perenne (LOLPE). The description is as above. The conditions noted are these: Lolium perenne, 480 h, rate 500 g/ha, evaluated after 20 days, read-out: Pre-emergence activity, LOLPE (100=total damage to plant; 0=no damage to plant). The series is classed as in vivo. Summed up:
as §1

The test system of series [6] is Setaria faberi (SETFA). The description is as above. The series is classed as in vivo. Particulars: Setaria faberi, 480 h, rate 500 g/ha, evaluated after 20 days, read-out: Pre-emergence activity, SETFA (100=total damage to plant; 0=no damage to plant). Summed up: as §1
Series [7] deals with Alopecurus myosuroides (ALOMY). Kind of series: Post-emergence herbicidal activity, glasshouse pot test. The series is classed as in vivo. Particulars: Alopecurus myosuroides, evaluated after 14 or 15 days, read-out: Post-emergence activity, ALOMY (100=total damage to plant; 0=no damage to plant); for pest or weed control at 500 g/ha: rate 500 g/ha; for pest or weed control at 125 g/ha: rate 125 g/ha. Summed up:
(§2)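 Visual damage ratings on a 0–100 scale (100 = plant killed) were taken 14 or 15 days after treatment. Seedlings had been raised for 10 days in sterilised soil in a glasshouse before spraying with an aqueous solution of the formulated active ingredient.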

Series [8] relates to Avena fatua (AVEFA). The series is described as above. It is filed as in vivo. Particulars: Avena fatua, evaluated after 14 or 15 days, read-out: Post-emergence activity, AVEFA (100=total damage to plant; 0=no damage to plant); for pest or weed control at 500 g/ha: rate 500 g/ha; for pest or weed control at 125 g/ha: rate 125 g/ha. A digest of the protocol: as §2
The subject of series [9] is Digitaria sanguinalis (DIGSA). Described as above. The series is classed as in vivo. The conditions noted are these: Digitaria sanguinalis, evaluated after 14 or 15 days, read-out: Post-emergence activity, DIGSA (100=total damage to plant; 0=no damage to plant); for pest or weed control at 500 g/ha: rate 500 g/ha; for pest or weed control at 125 g/ha: rate 125 g/ha. Summed up: as §2

The subject of series [10] is Echinochloa crus-galli (ECHCG). Described as above. The series is classed as in vivo. The conditions noted are these: Echinochloa crus-galli, evaluated after 14 or 15 days, read-out: Post-emergence activity, ECHCG (100=total damage to plant; 0=no damage to plant); for pest or weed control at 500 g/ha: rate 500 g/ha; for pest or weed control at 125 g/ha: rate 125 g/ha. Summed up:
as §2

The test system of series [11] is Lolium perenne (LOLPE). The description is as above. The series is classed as in vivo. Particulars: Lolium perenne, evaluated after 14 or 15 days, read-out: Post-emergence activity, LOLPE (100=total damage to plant; 0=no damage to plant); for pest or weed control at 500 g/ha: rate 500 g/ha; for pest or weed control at 125 g/ha: rate 125 g/ha. A digest of the protocol:
as §2

For series [12], the system named is Setaria faberi (SETFA). The series is described as above. It is filed as in vivo. The conditions noted are these: Setaria faberi, evaluated after 14 or 15 days, read-out: Post-emergence activity, SETFA (100=total damage to plant; 0=no damage to plant); for pest or weed control at 500 g/ha: rate 500 g/ha; for pest or weed control at 125 g/ha: rate 125 g/ha. A digest of the protocol:
as §2

As a reminder, the melting point is the temperature, or range, at which the solid turns liquid. On to `CCc1ccc(-c2ccc(Cl)cc2)cc1C1=C(O)CC2(CCOCC2)CC1=O` [Compound T4, 9-(5-(4′-chlorophenyl)-2-ethylphenyl)-3-oxaspiro[5.5]undecane-8,10-dione], for which the melting point is 94.5 to 97.5 °C. Besides, in series [1], the pest or weed control at 500 g/ha is 70%. In the series with Avena fatua (AVEFA) [2], the pest or weed control at 500 g/ha worked out at 70%. In addition, the pest or weed control at 500 g/ha in series [3] worked out at 100%. The pest or weed control at 500 g/ha in series [4] is 100%. The pest or weed control at 500 g/ha with Lolium perenne (LOLPE) [5] amounted to 70%. In the series with Setaria faberi (SETFA) [6], the pest or weed control at 500 g/ha was determined as 100%. The pest or weed control at 500 g/ha in series [7] stood at 90%. Moreover, the pest or weed control at 500 g/ha in the series on Avena fatua (AVEFA) [8] turned out to be 80%. For the same molecule, the pest or weed control at 500 g/ha in [9] came to 100%. In series [10], the pest or weed control at 500 g/ha was 100%. The pest or weed control at 500 g/ha with Lolium perenne (LOLPE) [11] turned out to be 70%. Also, the pest or weed control at 500 g/ha with Setaria faberi (SETFA) [12] came out at 90%.
`Cc1ccc(C)c(C2=C(OC(=O)N(C)CCC#N)CC3(CCOCC3)CC2=O)c1` [Compound P57] showed a melting point of 108 to 114 °C.
As for `CCc1cc(C)cc(CC)c1C1=C(O)CC(CC(C)[S+]([O-])CC)CC1=O` (stereo not drawn) [Compound T29, 2-(2,6-diethyl-4-methylphenyl)-5-[2-(ethylsulfinyl)propyl]cyclohexane-1,3-dione], the melting point lay in the range of 58 to 61 °C. Moreover, the pest or weed control at 500 g/ha in series [1] stood at 100%. In addition, the pest or weed control at 500 g/ha in the series with Avena fatua (AVEFA) [2] stood at 90%. Besides, in [3], the pest or weed control at 500 g/ha is 100%. For the same molecule, in series [4], the pest or weed control at 500 g/ha came out at 100%. Also, the pest or weed control at 500 g/ha in the series on Lolium perenne (LOLPE) [5] came to 100%. The pest or weed control at 500 g/ha in the series with Setaria faberi (SETFA) [6] was found to be 100%. The pest or weed control at 500 g/ha in series [7] worked out at 90%. Also, the pest or weed control at 500 g/ha with Avena fatua (AVEFA) [8] came to 100%. Further, the pest or weed control at 500 g/ha in series [9] stood at 100%. For the same molecule, in [10], the pest or weed control at 500 g/ha stood at 100%. The pest or weed control at 500 g/ha in the series on Lolium perenne (LOLPE) [11] turned out to be 90%. Besides, in the series on Setaria faberi (SETFA) [12], the pest or weed control at 500 g/ha came out at 90%.
On to `Cc1ccc(-c2ccc(Cl)cc2)cc1C1=C(O)CC2(CCOCC2)CC1=O` [Compound T3], for which the pest or weed control at 500 g/ha came out at 40% in series [1]; 50% with Avena fatua (AVEFA) [2]; 100% in series [3]; 100% in [4]; 60% in the series with Lolium perenne (LOLPE) [5]; 100% in the series on Setaria faberi (SETFA) [6]. Further, the pest or weed control at 500 g/ha in series [7] worked out at 80%; with Avena fatua (AVEFA) [8], 80%; in [9], 100%; in series [10] it was 100%; with Lolium perenne (LOLPE) [11] it was 80%; in the series on Setaria faberi (SETFA) [12], 100%.
In the case of `CCc1cc(C)cc(CC)c1C1=C(OC(=O)C(C)CC)CC2(CCOCC2)CC1=O` (stereo not drawn) [Compound P13], the pest or weed control at 500 g/ha (in [1]; in the series on Avena fatua (AVEFA) [2]; in [3]; in [4]; in the series on Lolium perenne (LOLPE) [5]; in the series with Setaria faberi (SETFA) [6]) was 100% in each case. Besides, the pest or weed control at 125 g/ha in series [7] is 90%; in the series with Avena fatua (AVEFA) [8], 100%; in series [9], 100%; in series [10] it was 100%; in the series on Lolium perenne (LOLPE) [11], 90%; in the series with Setaria faberi (SETFA) [12], 90%.
For the molecule `CCOC(=O)OC1=C(c2c(CC)cc(C)cc2CC)C(=O)CC2(CCOCC2)C1` [Compound P16], the pest or weed control at 500 g/ha (in series [1]; with Avena fatua (AVEFA) [2]; in [3]; in series [4]; in the series with Lolium perenne (LOLPE) [5]; in the series with Setaria faberi (SETFA) [6]) was 100% in each case. The pest or weed control at 125 g/ha amounted to 100% in [7]; 90% in the series on Avena fatua (AVEFA) [8]; 100% in series [9]; 100% in series [10]; 100% with Lolium perenne (LOLPE) [11]; 70% in the series on Setaria faberi (SETFA) [12].
`CCc1cc(C)cc(CC)c1C1=C(OC(=O)C2CC2)CC2(CCOCC2)CC1=O` [Compound P9]: the pest or weed control at 500 g/ha (in series [1]; in the series with Avena fatua (AVEFA) [2]; in series [3]; in series [4]; in the series on Lolium perenne (LOLPE) [5]; in the series with Setaria faberi (SETFA) [6]) was 100% each time. In addition, the pest or weed control at 125 g/ha in series [7] is 80%; with Avena fatua (AVEFA) [8], 100%; in series [9], 90%; in [10], 100%; with Lolium perenne (LOLPE) [11], 90%; in the series on Setaria faberi (SETFA) [12] it was 90%.
